# In paper PMC13598332, “Selective activation of tetrodotoxin-sensitive sodium channels by AaH-II drives arrhythmogenic late Na^+ current in the heart” (Europace, 2026):
# Like-named read-outs stand apart in the source and are kept apart here.
# Legend:
# Wistar-Han rats = assay type: in vivo, rat; details: for QTc / RR / P wave / PR / QRS / T wave area: mean ± SEM
# hNav1.5 [1] = target: T1, hNav1.5 (Homo sapiens, UniProt Q14524); assay type: cell-based; details: for Na+ entry through hNav1.5 in action potential-mimicking protocol: 10 μM TTX-subtracted current
# hNav1.3 = hNav1.3 (Homo sapiens, UniProt Q9NY46); assay type: cell-based
# hNav1.5 [2] = target: T1, hNav1.5; experiment: Manual patch-clamp on HEK293-Nav1.5; assay type: cell-based; details: 10 nM; HP −120 mV, 1000-ms step to −20 mV, RT
# Experimental: Whole-cell Nav currents were recorded at RT from HEK293 stably expressing hNav1.5, using an Axopatch 200A amplifier (Axon Instruments, Molecular Devices). Voltage-clamp protocols were applied using the pClamp 10.4 software suite (Axon Instruments), interfaced with the electrophysiological setup through a Digidata 1440A digitizer (Axon Instruments). Patch-clamp pipettes were fabricated from borosilicate glass capillaries (outer diameter: 1.5 mm; inner diameter: 0.86 mm; Sutter Instrument) using a P-97 micropipette puller (Sutter Instrument), yielding a pipette resistance of 0.8–1.5 MΩ when filled with the internal solution. The internal solution contained (in mM) 10 CsCl, 110 CsF, 10 NaCl, 10 EGTA, and 10 HEPES (pH 7.2, osmolarity 280 mOsm). The external solution contained (in mM) 100 NaCl, 4 KCl, 40 NMDG, 2 CaCl2, 1 MgCl2, 5 glucose, and 10 HEPES (pH 7.4, osmolarity 298 mOsm). All chemicals were purchased from Sigma-Aldrich. After 80% series resistance compensation, 1000-ms depolarizing steps to −20 mV were applied from a HP of −120 mV to record sodium current under control conditions, following application of 10 nM AaH-II*. Sweeps were delivered every 5 s. Current signals were filtered at 10 kHz before digitization at 50 kHz and storage. […] Data were compiled and analysed using ClampFit 11.2 (Axon Instruments), Microsoft Excel, and GraphPad Software Prism.
# hNav1.4 = hNav1.4 (Homo sapiens, UniProt P35499); assay type: cell-based
# hNav1.7 = hNav1.7 (Homo sapiens, UniProt Q15858); assay type: cell-based
# [3] = test system: adult rat ventricular cardiomyocytes; experiment: Calcium imaging (SCR events) in isolated rat cardiomyocytes; assay type: cell-based
# Experimental: Eleven-week-old Wistar Han rats were euthanized by intraperitoneal (i.p.) injection of a lethal dose of pentobarbital (140 mg/kg, Euthasol®). Subsequently, the hearts were quickly excised and rinsed in cold calcium-free Tyrode solution with the following composition (in mM): 118 NaCl, 4.17 KCl, 1.2 MgSO4, 1.2 KH2PO4, 21 NaHCO3, 11 glucose, and 5 taurine, at pH 7.4. The aorta was promptly cannulated, and the hearts were perfused in a retrograde fashion with warm (37–38°C) Tyrode containing 1.25 mM CaCl2 to flush the coronary arteries of blood and then with a Tyrode solution supplemented with 1 mg/mL collagenase type 2 (Worthington Biochemical Corp, Lakewood, NJ) and 0.2 U.mL^−1 protease type XIV (Sigma, Poole, UK) during 15–20 min. Once enzymatic digestion is completed, ventricles were shredded into small pieces with surgical scissors in 0.5 mM Ca^2+ Tyrode solution, filtered through a 200-µm mesh, and then resuspended in 1 mM Ca^2+ Tyrode solution for 1 h at RT. Isolated cardiomyocytes were incubated in the dark with Fura-2-AM calcium probe (2 µM in 20% v/v DMSO; Life Technologies) for 15 min. Cardiomyocytes were then loaded onto the IonOptix system (IonOptix Corporation, U.S.A.) and perfused with warm (37°C) Tyrode solution. Cardiomyocytes were stimulated at 0.5 Hz using a MyoPacer field stimulator (20 V, 7 ms) to achieve steady state. Fura-2 fluorescence (F) at 510 nm was used to measure cytoplasmic Ca^2+ concentration variation by exciting with UV light at 340 and 380 nm. Cells were paced for 1 to 2 min, ensuring stabilization of the signals, and the effects of the peptides were measured at the end of a 5 min application time. 30-s-long periods were used as the unit duration (representing 15 Ca^2+ transients) during control and after the perfusion of the compound to count the number of arrhythmogenic transients.
# hNav1.2 = hNav1.2 (Homo sapiens, UniProt Q99250); assay type: cell-based
# [4] = test system: adult rat ventricular myocytes; assay type: cell-based; details: HP −120 mV, 1-s pulse to −20 mV
# in vivo = details: Wistar-Han, rat, iv
# [5] = representative traces, test 0 mV
# Sequence of hNav1.2 (Q99250 whole entry): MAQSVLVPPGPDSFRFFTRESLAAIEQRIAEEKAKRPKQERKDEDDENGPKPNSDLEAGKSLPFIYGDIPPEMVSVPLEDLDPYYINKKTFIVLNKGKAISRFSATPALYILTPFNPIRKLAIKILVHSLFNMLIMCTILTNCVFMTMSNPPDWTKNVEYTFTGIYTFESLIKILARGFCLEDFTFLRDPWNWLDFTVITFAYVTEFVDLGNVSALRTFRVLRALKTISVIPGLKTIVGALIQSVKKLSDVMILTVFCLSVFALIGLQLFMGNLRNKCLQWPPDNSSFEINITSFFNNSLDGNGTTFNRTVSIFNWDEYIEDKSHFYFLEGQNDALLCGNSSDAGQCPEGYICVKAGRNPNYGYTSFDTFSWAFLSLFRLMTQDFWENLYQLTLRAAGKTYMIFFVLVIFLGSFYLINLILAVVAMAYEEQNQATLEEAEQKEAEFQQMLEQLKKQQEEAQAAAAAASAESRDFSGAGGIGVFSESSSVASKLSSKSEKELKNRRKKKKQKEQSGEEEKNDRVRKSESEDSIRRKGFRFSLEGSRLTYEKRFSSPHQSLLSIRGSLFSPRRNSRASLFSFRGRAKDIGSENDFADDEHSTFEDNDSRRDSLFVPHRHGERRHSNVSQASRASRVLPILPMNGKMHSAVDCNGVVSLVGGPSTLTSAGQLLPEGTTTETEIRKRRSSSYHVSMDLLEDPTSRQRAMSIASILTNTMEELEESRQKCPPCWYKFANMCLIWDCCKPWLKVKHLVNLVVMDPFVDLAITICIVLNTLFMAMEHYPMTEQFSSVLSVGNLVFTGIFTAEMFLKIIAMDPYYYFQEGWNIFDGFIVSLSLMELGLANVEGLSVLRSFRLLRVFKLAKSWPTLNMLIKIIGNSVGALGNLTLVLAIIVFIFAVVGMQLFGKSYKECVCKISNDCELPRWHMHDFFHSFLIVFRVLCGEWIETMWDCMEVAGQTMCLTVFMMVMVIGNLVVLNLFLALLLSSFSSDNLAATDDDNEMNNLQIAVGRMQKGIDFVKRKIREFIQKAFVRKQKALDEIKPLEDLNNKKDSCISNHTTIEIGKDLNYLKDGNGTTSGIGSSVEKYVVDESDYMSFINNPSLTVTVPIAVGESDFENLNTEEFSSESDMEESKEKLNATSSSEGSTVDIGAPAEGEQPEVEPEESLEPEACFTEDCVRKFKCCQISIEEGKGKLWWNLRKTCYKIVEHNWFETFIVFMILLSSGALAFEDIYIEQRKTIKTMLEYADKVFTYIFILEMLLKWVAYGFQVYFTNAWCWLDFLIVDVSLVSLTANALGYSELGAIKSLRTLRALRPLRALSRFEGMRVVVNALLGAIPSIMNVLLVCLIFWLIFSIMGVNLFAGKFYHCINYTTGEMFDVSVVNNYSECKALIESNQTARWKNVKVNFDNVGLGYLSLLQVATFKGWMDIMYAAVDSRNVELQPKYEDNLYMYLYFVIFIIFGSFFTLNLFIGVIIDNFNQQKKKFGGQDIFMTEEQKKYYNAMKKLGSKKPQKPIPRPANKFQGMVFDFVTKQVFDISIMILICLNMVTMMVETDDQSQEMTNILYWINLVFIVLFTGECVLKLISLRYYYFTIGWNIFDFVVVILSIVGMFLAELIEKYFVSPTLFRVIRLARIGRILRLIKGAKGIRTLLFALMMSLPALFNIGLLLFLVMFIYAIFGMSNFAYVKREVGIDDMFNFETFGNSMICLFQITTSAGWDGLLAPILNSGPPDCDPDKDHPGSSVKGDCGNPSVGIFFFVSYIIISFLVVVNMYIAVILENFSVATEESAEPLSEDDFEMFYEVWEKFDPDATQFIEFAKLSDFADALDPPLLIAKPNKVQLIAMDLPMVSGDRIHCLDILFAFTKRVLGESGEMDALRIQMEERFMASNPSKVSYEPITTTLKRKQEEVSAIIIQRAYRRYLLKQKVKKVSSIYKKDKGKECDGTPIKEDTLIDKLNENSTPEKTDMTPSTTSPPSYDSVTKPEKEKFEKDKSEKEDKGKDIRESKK
# T1 sequence (Q14524 other isoform, or with tags, fused parts or gaps): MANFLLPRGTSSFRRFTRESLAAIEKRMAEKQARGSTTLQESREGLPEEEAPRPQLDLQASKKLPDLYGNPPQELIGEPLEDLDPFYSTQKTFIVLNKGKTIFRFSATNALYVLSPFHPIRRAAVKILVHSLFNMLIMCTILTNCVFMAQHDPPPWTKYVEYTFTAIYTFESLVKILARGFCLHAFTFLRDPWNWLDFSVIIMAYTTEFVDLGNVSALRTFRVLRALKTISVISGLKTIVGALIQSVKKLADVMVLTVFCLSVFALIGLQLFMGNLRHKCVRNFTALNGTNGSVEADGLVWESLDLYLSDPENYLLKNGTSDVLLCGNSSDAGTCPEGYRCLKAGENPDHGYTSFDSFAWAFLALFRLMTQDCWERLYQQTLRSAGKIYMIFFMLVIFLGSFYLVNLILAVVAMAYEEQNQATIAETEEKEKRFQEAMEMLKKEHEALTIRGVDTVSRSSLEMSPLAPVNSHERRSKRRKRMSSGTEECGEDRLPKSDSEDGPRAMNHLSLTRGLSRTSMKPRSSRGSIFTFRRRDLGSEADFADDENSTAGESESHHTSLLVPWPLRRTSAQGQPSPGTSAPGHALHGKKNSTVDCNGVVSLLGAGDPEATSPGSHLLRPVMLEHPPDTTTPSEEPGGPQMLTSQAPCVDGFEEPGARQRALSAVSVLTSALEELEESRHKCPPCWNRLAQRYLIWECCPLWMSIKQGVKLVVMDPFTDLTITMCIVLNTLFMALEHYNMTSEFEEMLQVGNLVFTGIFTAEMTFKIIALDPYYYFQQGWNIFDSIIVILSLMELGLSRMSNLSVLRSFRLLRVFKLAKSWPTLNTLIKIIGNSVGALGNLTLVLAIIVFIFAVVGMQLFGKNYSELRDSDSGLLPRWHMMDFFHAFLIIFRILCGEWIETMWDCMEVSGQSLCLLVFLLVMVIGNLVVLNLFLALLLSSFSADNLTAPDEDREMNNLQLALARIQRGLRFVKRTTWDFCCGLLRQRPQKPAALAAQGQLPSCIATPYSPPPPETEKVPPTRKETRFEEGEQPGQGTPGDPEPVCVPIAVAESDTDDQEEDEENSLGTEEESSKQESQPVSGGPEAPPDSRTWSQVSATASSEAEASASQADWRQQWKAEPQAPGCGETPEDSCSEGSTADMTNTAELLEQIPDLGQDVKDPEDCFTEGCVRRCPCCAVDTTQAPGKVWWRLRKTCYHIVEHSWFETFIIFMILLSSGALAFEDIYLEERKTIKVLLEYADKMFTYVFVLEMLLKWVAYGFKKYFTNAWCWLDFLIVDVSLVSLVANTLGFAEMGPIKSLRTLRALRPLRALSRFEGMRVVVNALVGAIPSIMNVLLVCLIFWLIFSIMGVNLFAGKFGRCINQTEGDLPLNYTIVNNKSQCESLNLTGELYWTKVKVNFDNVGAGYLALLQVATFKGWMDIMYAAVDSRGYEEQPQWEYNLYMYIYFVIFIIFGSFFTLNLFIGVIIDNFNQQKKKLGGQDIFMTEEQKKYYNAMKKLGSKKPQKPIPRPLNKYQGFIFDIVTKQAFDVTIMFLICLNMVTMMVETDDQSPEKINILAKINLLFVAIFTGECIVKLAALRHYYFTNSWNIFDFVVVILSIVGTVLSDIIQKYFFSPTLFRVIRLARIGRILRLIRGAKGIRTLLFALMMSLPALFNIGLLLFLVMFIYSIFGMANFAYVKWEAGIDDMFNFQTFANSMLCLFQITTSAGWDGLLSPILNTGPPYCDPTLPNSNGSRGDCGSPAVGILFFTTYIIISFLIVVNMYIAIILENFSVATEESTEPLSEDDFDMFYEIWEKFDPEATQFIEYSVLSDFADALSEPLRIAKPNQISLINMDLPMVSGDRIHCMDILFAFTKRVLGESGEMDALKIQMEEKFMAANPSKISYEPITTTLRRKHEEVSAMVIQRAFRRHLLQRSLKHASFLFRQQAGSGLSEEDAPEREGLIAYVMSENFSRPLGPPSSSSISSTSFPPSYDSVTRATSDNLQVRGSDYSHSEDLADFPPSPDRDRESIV
smiles,measurement,setting,value
CC[C@H](C)[C@H](NC(=O)[C@H](Cc1ccc(O)cc1)NC(=O)CNC(=O)[C@H](CC(=O)O)NC(=O)[C@H](CCCCN)NC(=O)[C@@H](N)C(C)C)C(=O)N[C@H](C(=O)N[C@@H](CC(=O)O)C(=O)N[C@@H](CC(=O)O)C(=O)N[C@H](C(=O)N[C@@H](CC(N)=O)C(=O)N[C@H]1CSSC[C@@H](C(=O)N[C@@H](Cc2c[nH]cn2)C(N)=O)NC(=O)[C@H](CCCCN)NC(=O)CNC(=O)[C@@H]2CCCN2C(=O)CNC(=O)[C@H](CCCCN)NC(=O)[C@H]([C@@H](C)O)NC(=O)[C@H](CCCNC(=N)N)NC(=O)[C@H](C(C)C)NC(=O)[C@H](Cc2c[nH]cn2)NC(=O)[C@H](CC(=O)O)NC(=O)[C@@H]2CCCN2C(=O)[C@H](CC(C)C)NC(=O)[C@H](CCCCN)NC(=O)[C@H](Cc2ccc(O)cc2)NC(=O)[C@@H]2CSSC[C@@H]3NC(=O)[C@H](CCC(=O)O)NC(=O)[C@H](CCC(=O)O)NC(=O)[C@H](CC(N)=O)NC(=O)[C@@H]4CSSC[C@H](NC(=O)[C@H](C)NC(=O)[C@H](CC(N)=O)NC(=O)CNC(=O)[C@H](Cc5ccc(O)cc5)NC(=O)[C@@H]5CCCN5C(=O)[C@H](CO)NC(=O)[C@H](C)NC(=O)[C@H](Cc5c[nH]c6ccccc56)NC(=O)[C@H](CCC(N)=O)NC(=O)[C@H](CSSC[C@H](NC(=O)[C@H](Cc5ccccc5)NC(=O)[C@H](Cc5ccc(O)cc5)NC(=O)[C@H]([C@@H](C)O)NC1=O)C(=O)NCC(=O)N[C@@H](CCCNC(=N)N)C(=O)N[C@@H](CC(N)=O)C(=O)N[C@@H](C)C(=O)N[C@@H](Cc1ccc(O)cc1)C(=O)N4)NC(=O)[C@H](Cc1ccc(O)cc1)NC(=O)CNC(=O)[C@H](CO)NC(=O)[C@H](CCC(=O)O)NC(=O)CNC(=O)[C@H](CCCCN)NC(=O)[C@H](CC(C)C)NC(=O)[C@H](CCCCN)NC(=O)[C@H]([C@@H](C)O)NC3=O)C(=O)N[C@@H](Cc1ccc(O)cc1)C(=O)N2)C(C)C)C(C)C [AaH-II*],arrhythmic rats (rats / all rats),Wistar-Han rats; AaH-II* 3 μg/kg i.v.,none of the rats were arrhythmic
same,QTc,"Wistar-Han rats; AaH-II* 3 µg/kg i.v., QTc = QT/(RR/100)^1/2, n = 5",54.9 ± 5.2
same,RR,"Wistar-Han rats; AaH-II* 3 µg/kg i.v., anaesthetized rats, lead I, n = 5",153.7 ± 5.6 ms
same,P wave,"Wistar-Han rats; AaH-II* 3 µg/kg i.v., n = 5",17.5 ± 0.3 ms
same,PR,"Wistar-Han rats; AaH-II* 3 µg/kg i.v., n = 5",47.5 ± 1.4 ms
same,QRS,"Wistar-Han rats; AaH-II* 3 µg/kg i.v., n = 5",16.9 ± 1.0 ms
same,T wave area,"Wistar-Han rats; AaH-II* 3 µg/kg i.v., n = 5",1.8 ± 0.5 mV/ms
same,rats with A-V blocks/ PVCs (rats / all rats),Wistar-Han rats; AaH-II* 15 μg/kg i.v.,in all rats
same,P wave,"Wistar-Han rats; AaH-II* 15 µg/kg i.v., n = 6",18.0 ± 0.8 ms
same,PR,"Wistar-Han rats; AaH-II* 15 µg/kg i.v., n = 6",53.2 ± 5.4 ms
same,QRS,"Wistar-Han rats; AaH-II* 15 µg/kg i.v., n = 6",18.0 ± 0.6 ms
same,RR,"Wistar-Han rats; AaH-II* 15 µg/kg i.v., n = 6",181.6 ± 2.7 ms
same,T wave area,"Wistar-Han rats; AaH-II* 15 µg/kg i.v., n = 6",3.2 ± 0.5 mV/ms
same,P wave,"Wistar-Han rats; AaH-II* 30 µg/kg i.v., n = 6",18.9 ± 0.8 ms
same,PR,"Wistar-Han rats; AaH-II* 30 µg/kg i.v., n = 6",53.8 ± 2.2 ms
same,QRS,"Wistar-Han rats; AaH-II* 30 µg/kg i.v., n = 6",17.8 ± 0.3 ms
same,QTc,"Wistar-Han rats; AaH-II* 30 µg/kg i.v., n = 6",69.5 ± 3.3
same,RR,"Wistar-Han rats; AaH-II* 30 µg/kg i.v., n = 6",176.8 ± 12.3 ms
same,T wave area,"Wistar-Han rats; AaH-II* 30 µg/kg i.v., n = 6",8.1 ± 1.9 mV/ms
same,Na+ entry through hNav1.5 in action potential-mimicking protocol,hNav1.5 [1]; 0.1 nM,indistinguishable from the control condition
same,Na+ entry through hNav1.5 in action potential-mimicking protocol,hNav1.5 [1]; 10 nM,capable of generating a measurable Na^+ current
same,INaL after 1 s depolarization,"hNav1.5 [1]; hNav1.5, 10 nM",absence of AaH-II*-mediated INaL after 1 s depolarization
same,shift in voltage-dependence of activation,"hNav1.5 [1]; hNav1.5, 10 nM",lack of shift in the voltage-dependence of activation and inactivation
same,maximal INaL stimulation (maximal AUC),"hNav1.5 [1]; hNav1.5, highest effective AaH-II* concentration",~19 fold
same,concentration at which INaL is triggered / becomes noticeable,"hNav1.5 [1]; hNav1.5, representative traces, test 0 mV",0.3 nM
same,INaL after 1 s depolarization,hNav1.3; 10 nM,maintained INaL after 1 s pulse
same,shift in voltage-dependence of activation,hNav1.3; 10 nM,large AaH-II*-triggered hyperpolarizing shift in voltage-dependence of activation
same,concentration at which INaL is triggered / becomes noticeable,hNav1.3; [5],0.1 nM
same,effect on peak current amplitude or INaL measured at 1 sec depolarization,hNav1.5 [2],absence of effect
same,INaL after 1 s depolarization,hNav1.4; 10 nM,lack of effects of AaH-II* on those two parameters
same,shift in voltage-dependence of activation,hNav1.4; 10 nM,lack of effects of AaH-II* on those two parameters
same,maximal INaL stimulation (maximal AUC),hNav1.4; highest effective AaH-II* concentration,six
same,concentration at which INaL is triggered / becomes noticeable,hNav1.4; [5],0.3 nM
same,INaL after 1 s depolarization,hNav1.7; 10 nM,lacked sufficient INaL at 1 s depolarization
same,shift in voltage-dependence of activation,hNav1.7; 10 nM,AaH-II*-mediated shift in voltage-dependence of activation
same,concentration at which INaL is triggered / becomes noticeable,hNav1.7; [5],1 nM
same,average frequency of SCR events,[3]; 0.1 nM AaH-II*,14 SCR/min
same,cells presenting SCR events (SCR cells / cells),"[3]; 0.1 nM peptide, 0.5 Hz pacing, 37°C, 5 min application",13 out of 23
same,calcium transient amplitude and time to peak,[3]; 1 or 3 nM AaH-II*,slightly reduce the amplitude of the calcium transients and slow the time to peak
same,hNav1.2 peak current inhibition,hNav1.2; above 1 nM,not observed
same,INaL after 1 s depolarization,"hNav1.2; hNav1.2, 10 nM",significant INaL current at 1 s depolarization
same,shift in voltage-dependence of activation,"hNav1.2; hNav1.2, 10 nM",lacked a significant shift in voltage-dependence of activation
same,concentration at which INaL is triggered / becomes noticeable,"hNav1.2; hNav1.2, representative traces, test 0 mV",0.1 nM
same,AUC and INaL at 1 s depolarization,"[4]; 0.1 nM, n = 6 cardiomyocytes",half of the cells responded with an increased AUC and INaL
same,peak current amplitude,"[4]; 0.1 nM, n = 6 cardiomyocytes",None of the cells witnessed an increase in peak current amplitude
same,AUC and INaL at 1 s depolarization,[4]; 10 nM,significant increase in AUC and INaL in all cells recorded
same,level at time molar,in vivo; 3 ug/kg,< 0.1 nM
same,level at time molar,in vivo; 15 ug/kg,2.4 ± 0.4 nM
same,level at time molar,in vivo; 30 ug/kg,4.3 ± 0.6 nM
